Measurements reported in ChEMBL document CHEMBL5154907, “Discovery and Anti-Inflammatory Activity Evaluation of a Novel CDK8 Inhibitor through Upregulation of IL-10 for the Treatment of Inflammatory Bowel Disease In Vivo” (J Med Chem, 2022).

Columns and labels:
[1] = test system: BMDC; assay: Anti-inflammatory activity against R848-stimulated mouse BMDC cells assessed as upregulation of IL-10 production at 5 uM treated for 24 hrs followed by R848 stimulation for 12 hrs by ELISA method (reference value: 100 %); format: functional; settings: time 36 hrs
[2] = Stability of compound in human liver microsome assessed as intrinsic clearance by HPLC analysis; format: ADME; settings: liver microsomes, read-out: CLH
[3] = Transcriptional activity of AP-1 in R848-stimulated mouse BMDC cells transfected with pAP1-luc assessed as ratio of AP-1 activity at 5 uM treated for 24 hrs followed by R848 stimulation for 4 hrs by luminescence based microplate reader analysis relative to control; format: functional; settings: time 28 hrs
[4] = target: CDK8/Cyclin C (Homo sapiens, UniProt P49336); assay: Inhibition of recombinant full length His tagged human CDK8/Cyclin C expressed in Baculovirus incubated for 60 mins in presence of ATP by ADP-Glo kinase assay
[5] = target: CDK8/Cyclin C (Homo sapiens) (UniProt P49336+P24863); assay: Inhibition of recombinant full length His tagged human CDK8/Cyclin C expressed in Baculovirus at 200 nM incubated for 60 mins in presence of ATP by ADP-Glo kinase assay

Sequence of CDK8/Cyclin C (P49336 whole entry): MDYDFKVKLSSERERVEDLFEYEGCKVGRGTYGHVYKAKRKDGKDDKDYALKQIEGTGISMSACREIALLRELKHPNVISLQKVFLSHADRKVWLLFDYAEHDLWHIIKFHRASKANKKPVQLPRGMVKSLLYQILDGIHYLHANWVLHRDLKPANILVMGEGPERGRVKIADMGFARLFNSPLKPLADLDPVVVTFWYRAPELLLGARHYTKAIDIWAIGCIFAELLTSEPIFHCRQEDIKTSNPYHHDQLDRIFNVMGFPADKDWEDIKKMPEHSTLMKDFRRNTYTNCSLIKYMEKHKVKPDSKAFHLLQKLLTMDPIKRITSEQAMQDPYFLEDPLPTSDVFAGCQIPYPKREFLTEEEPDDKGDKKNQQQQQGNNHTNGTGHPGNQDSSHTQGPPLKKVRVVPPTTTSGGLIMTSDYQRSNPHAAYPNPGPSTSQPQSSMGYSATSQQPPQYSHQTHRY
Sequence of CDK8/Cyclin C (P24863 whole entry, further chain): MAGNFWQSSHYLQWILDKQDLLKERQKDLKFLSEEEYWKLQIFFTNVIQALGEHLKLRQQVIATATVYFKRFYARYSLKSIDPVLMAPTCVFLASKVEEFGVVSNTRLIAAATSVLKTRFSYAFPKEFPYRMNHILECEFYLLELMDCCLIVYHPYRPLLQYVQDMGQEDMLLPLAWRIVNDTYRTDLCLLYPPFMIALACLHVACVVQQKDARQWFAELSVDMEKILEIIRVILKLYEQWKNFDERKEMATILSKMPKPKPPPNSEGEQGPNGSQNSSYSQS

SMILES	Activity [1] [%]	microsomal CLint [2] [µL/min/mg]	Ratio [3]	IC50 [4] [µM]	inhibition [5] [%]
COc1c(O)cc(O)c2c(=O)cc(-c3ccccc3)oc12 [WOGONIN]	65	11.3	1.4	5.9	–
O=C(Nc1ccccc1)c1cc(-c2ccc(C(=O)N3CCNCC3)cc2)ccc1O	40	–	1.2	0.21	54
CCc1cccc(NC(=O)c2cncc(-c3ccc(C(=O)N4CCNCC4)cc3)c2)c1	34	–	1.7	0.104	73
CCc1ccc(NC(=O)c2cncc(-c3ccc(C(=O)N4CCNCC4)cc3)c2)cc1	40	–	1.9	0.096	71
COc1ccc(NC(=O)c2cncc(-c3ccc(C(=O)N4CCNCC4)cc3)c2)cc1	74	–	1.7	0.081	77
O=C(c1ccc(-c2cc(O)c3c(=O)cc(-c4ccccc4)oc3c2)cc1)N1CCNCC1	43	12.9	2.4	0.072	75
O=C(Nc1ccccc1)c1ccnc(-c2ccc(C(=O)N3CCNCC3)cc2)c1	29	10.9	2.4	0.08	65
CC(=O)Nc1ccc(NC(=O)c2cncc(-c3ccc(C(=O)N4CCNCC4)cc3)c2)cc1	37	–	1.1	1.05	35
O=C(Nc1ccccc1)c1cncc(-c2ccc(C(=O)N3CCNCC3)cc2)c1	76	7.3	2.8	0.08	79
O=C(Nc1ccccc1)c1ccc(O)c(-c2ccc(C(=O)N3CCNCC3)cc2)c1	26	–	1.2	0.214	57
O=c1cc(-c2ccccc2)oc2cc(-c3ccccc3)cc(O)c12	–	10.9	1.5	0.234	46
Nc1ccc(-c2cc(O)c3c(=O)cc(-c4ccccc4)oc3c2)cc1	21	–	2.6	0.112	64
O=C(Nc1ccc(Cl)cc1)c1cncc(-c2ccc(C(=O)N3CCNCC3)cc2)c1	33	–	1.55	1.47	20
O=C(Nc1cccc(C(F)(F)F)c1)c1cncc(-c2ccc(C(=O)N3CCNCC3)cc2)c1	42	–	1.41	1.14	24
Cc1cccc(NC(=O)c2cncc(-c3ccc(C(=O)N4CCNCC4)cc3)c2)c1	62	–	1.6	0.075	76
Cc1ccccc1NC(=O)c1cncc(-c2ccc(C(=O)N3CCNCC3)cc2)c1	70	13	1.5	0.07	81
Nc1ncc(-c2ccc(C(=O)N3CCNCC3)cc2)cc1C(=O)Nc1ccccc1	61	–	2.7	0.134	62
O=C(Nc1ccccc1)c1cc(O)cc(-c2ccc(C(=O)N3CCNCC3)cc2)c1	82	9.5	1.3	0.53	30
O=c1cc(-c2ccccc2)oc2cc(-c3ccc(CN4CCNCC4)cc3)cc(O)c12	33	15.9	1.9	0.144	69
Nc1ncc(C(=O)Nc2ccccc2)cc1-c1ccc(C(=O)N2CCNCC2)cc1	56	–	1.7	0.26	44
Nc1ccc(NC(=O)c2cncc(-c3ccc(C(=O)N4CCNCC4)cc3)c2)cc1	30	–	1.72	3.65	34
O=C(Nc1ccccc1)c1cc(-c2ccc(C(=O)N3CCNCC3)cc2)ccn1	72	10.4	2.3	0.087	78
Nc1ccccc1NC(=O)c1cncc(-c2ccc(C(=O)N3CCNCC3)cc2)c1	24	–	1.63	0.947	27
O=c1cc(-c2ccccc2)oc2cc(-c3ccc(N4CCNCC4)cc3)cc(O)c12	80	13.7	1.5	0.19	53
COc1cccc(NC(=O)c2cncc(-c3ccc(C(=O)N4CCNCC4)cc3)c2)c1	65	7	2	0.065	80
